Results reported in patent US20110039762A1, “TARGETED ANTIMICROBIAL MOIETIES” (C3 JIAN, INC., priority 2009, published 2011).
Entries after “also recorded” stand apart in the source; their conditions may differ.

Legend:
E. faecalis = test: Kill or inhibit growth/proliferation; morphology, biofilm and growth disruption (Tables 5, 6); type: cell-based, Enterococcus faecalis; parameters: key: A: Peptide aggregates; B: Less hyphal formation; Clumps; Diffuse clumps and small polyps; F: Diffuse growth; H: Thin; I: Growth inhibition; Microcolony formation; Rippled; Small polyps; Thick; W: Halo formation on top, microlonies on bottom; also: test concentration or dose not given here
[1] = test system: microorganisms (e.g., bacteria, yeasts, fungi); test: Targeting peptide binding to target microorganisms (Table 3); conditions: preferably 1x PBS; for Target(s) (microorganisms bound by the targeting peptide): peptide binding in aqueous buffers varied by peptide solubility
microorganisms = test: Peptides having multiple activities (targeting/binding, antimicrobial, growth or phenotype altering)
From the text: In certain embodiments, peptides described herein can have multiple activities. Thus for example, a peptide can have both binding/targeting activity and antimicrobial activity. Such peptides can be used, e.g., in a chimeric construct, for any or all of these properties. Thus, for example, a peptide designated “B” in Table 8 can be used as a targeting peptide. If it is also designated G or M it can also be used for antimicrobial activity.

S. epidermidis = test: Kill or inhibit growth/proliferation; morphology, biofilm and growth disruption (Tables 5, 6); type: cell-based, Staphylococcus epidermidis; parameters: key: A: Peptide aggregates; B: Less hyphal formation; Clumps; Diffuse clumps and small polyps; F: Diffuse growth; H: Thin; I: Growth inhibition; Microcolony formation; Rippled; Small polyps; Thick; W: Halo formation on top, microlonies on bottom; also: test concentration or dose not given here
MRSA = test: as above; type: cell-based, Methicillin-resistant Staphylococcus aureus; parameters: key: A: Peptide aggregates; B: Less hyphal formation; Clumps; Diffuse clumps and small polyps; F: Diffuse growth; H: Thin; I: Growth inhibition; Microcolony formation; Rippled; Small polyps; Thick; W: Halo formation on top, microlonies on bottom
S. pneumoniae = test: as above; type: cell-based, Streptococcus pneumoniae; parameters: key: A: Peptide aggregates; B: Less hyphal formation; Clumps; Diffuse clumps and small polyps; F: Diffuse growth; H: Thin; I: Growth inhibition; Microcolony formation; Rippled; Small polyps; Thick; W: Halo formation on top, microlonies on bottom; also: test concentration or dose not given here
[2] = microorganism the targeting peptide binds, binding in aqueous buffers varied by peptide solubility
[3] = microorganism(s) the targeting peptide binds, binding in aqueous buffers depending on peptide solubility
[4] = microorganism(s) the targeting peptide binds, peptide binding conducted in aqueous buffers varied by peptide solubility
For Organism, effect (morphology, biofilm and growth disruption) in this document: test concentration or dose not given here.
For Organism, effect in this document: test concentration or dose not given here.

| Substance | Organism, effect (E. faecalis) | Target(s) (microorganisms bound by the targeting peptide) [1] | Activities (microorganisms) | Organism, effect (S. epidermidis) | Organism, effect (MRSA) | Target(s) [1, 4] | other results |
| --- | --- | --- | --- | --- | --- | --- | --- |
| DEIKVSDEEIEKFIKENNL [PF-597] | E. faecalis (A) | P. mirabilis | G B |  |  |  |  |
| PF-041: peptide having multiple activities (chain 1 ELLVILPGFI; chain 2 ELLVILPGFI; Peptide with targeting and/or antimicrobial activity) |  |  | G B | S. epidermidis (R) | MRSA (M) |  | Target(s) [1, 2]: MRSA |
| PF-064: peptide having multiple activities (chain 1 DYYGKE; chain 2 DYYGKE; Peptide with targeting and/or antimicrobial activity) |  |  | G B | S. epidermidis (D) | MRSA (M) |  | Target(s) [1, 2]: E. coli |
| PF-074: peptide having multiple activities (RDIHPIYFMTKD; Peptide with targeting and/or antimicrobial activity) |  |  | G B | S. epidermidis (D) | MRSA (M) |  | Target(s) [1, 3]: S. epidermidis and M. luteus and MRSA |
| PF-373: peptide having multiple activities (chain 1 HFYLLFER; chain 2 HFYLLFER; Peptide with targeting and/or antimicrobial activity) |  |  | G B | S. epidermidis (M) | MRSA (M) |  | Target(s) [1, 3]: S. epidermidis and E. coli and P. aeruginosa and C. albicans and MRSA and E. faecalis and C. jejuni |
| PF-378: peptide having multiple activities (chain 1 ESAKSNLNFLMQEEWALFLLL; chain 2 ESAKSNLNFLMQEEWALFLLL; Peptide with targeting and/or antimicrobial activity) |  |  | G B | S. epidermidis (M) | MRSA (M) |  | Target(s) [1, 3]: B. subtilis; also recorded: B. fragilis; also recorded: E. coli; also recorded: P. aeruginosa; also recorded: C. jeikeium |
| PF-404: peptide having multiple activities (VLYFQATVV; Peptide with targeting and/or antimicrobial activity) |  |  | G B | S. epidermidis (M) | MRSA (M) | S. epidermidis; also recorded: E. coli; also recorded: P. aeruginosa; also recorded: E. faecalis; also recorded: C. jeikeium; also recorded: C. jejuni |  |
| PF-406: peptide having multiple activities (YLEMNADYLSNMDIFDELWEKYLENNK; Peptide with targeting and/or antimicrobial activity) |  |  | G B | S. epidermidis (C) | MRSA (M) | E. coli; also recorded: C. jejuni |  |
| PF-408: peptide having multiple activities (YCVPLGNMGNMNNKIW; Peptide with targeting and/or antimicrobial activity) |  |  | G B | S. epidermidis (M) | MRSA (M) | S. epidermidis and E. coli and P. aeruginosa and MRSA and E. faecalis and C. jeikeium and C. jejuni |  |
| PF-417: peptide having multiple activities (DSYFRS; Peptide with targeting and/or antimicrobial activity) |  |  | G B | S. epidermidis (M) | MRSA (M) | S. epidermidis; also recorded: C. jeikeium; also recorded: C. jejuni | Organism, effect (S. pneumoniae): S. pneumoniae (M) |
| PF-430: peptide having multiple activities (AVVCGYLAYTATS; Peptide with targeting and/or antimicrobial activity) |  |  | G B | S. epidermidis (M) | MRSA (M) | S. epidermidis; also recorded: M. luteus; also recorded: E. coli; also recorded: S. pneumoniae; also recorded: E. faecalis; also recorded: C. jeikeium; also recorded: C. jejuni | Organism, effect (S. pneumoniae): S. pneumoniae (M) |
| PF-484: peptide having multiple activities (chain 1 HKKDIRKQVFKN; chain 2 HKKDIRKQVFKN; Peptide with targeting and/or antimicrobial activity) | E. faecalis (A) |  | G B |  |  | S. epidermidis; also recorded: M. luteus; also recorded: P. mirabilis; also recorded: E. coli; also recorded: E. faecalis; also recorded: C. jeikeium; also recorded: C. jejuni |  |
| PF-582 (NLKTIEKECPFCNNKMDIKLKD; Peptide with targeting and/or antimicrobial activity) | E. faecalis (A) |  |  |  |  |  |  |
| PF-588: peptide having multiple activities (ESVEAIKAKAIK; Peptide with targeting and/or antimicrobial activity) | E. faecalis (A) |  | G B |  |  | S. epidermidis; also recorded: E. coli; also recorded: C. albicans; also recorded: E. faecalis; also recorded: C. jeikeium; also recorded: C. jejuni |  |
| PF-593: peptide having multiple activities (MEISTLKKEKLHVKDELSQYLANYKK; Peptide with targeting and/or antimicrobial activity) | E. faecalis (A) |  | G B |  |  | C. jeikeium |  |
| PF-594: peptide having multiple activities (IVSAIV; Peptide with targeting and/or antimicrobial activity) | E. faecalis (C) |  | G B |  |  | C. jeikeium |  |
| PF-602: peptide having multiple activities (LEKEKKEYIEKLFKTK; Peptide with targeting and/or antimicrobial activity) | E. faecalis (A) | P. mirabilis; also recorded: C. jeikeium | G B |  |  |  |  |
| PF-604: peptide having multiple activities (LMEQVEV; Peptide with targeting and/or antimicrobial activity) | E. faecalis (A) | S. epidermidis; also recorded: C. albicans; also recorded: C. jeikeium | G B |  |  |  |  |
| PF-618 (KLNTLNKKDNPSLNDQDKNAVLNLLALAK; Peptide with targeting and/or antimicrobial activity) | E. faecalis (H) |  |  |  |  |  | Organism, effect (S. pneumoniae): S. pneumoniae (I) |
| PF-621: peptide having multiple activities (PPSSFLV; Peptide with targeting and/or antimicrobial activity) | E. faecalis (H) | S. epidermidis; also recorded: C. albicans | G B |  |  |  | Organism, effect (S. pneumoniae): S. pneumoniae (I) |
| PF-649 (chain 1 CPRYPFVDVGPAGPWRARWRVGS; chain 2 CPRYPFVDVGPAGPWRARWRVGS; Peptide with targeting and/or antimicrobial activity) |  | Mycobacteria spp |  |  |  |  | Organism, effect (morphology, biofilm and growth disruption) (E. faecalis): E. faecalis (R) |
| PF-675 (chain 1 EIIPISPTRRCEMHTMSSAEYRGL; chain 2 EIIPISPTRRCEMHTMSSAEYRGL; Peptide with targeting and/or antimicrobial activity) |  | Mycobacteria spp |  |  |  |  | Organism, effect (morphology, biofilm and growth disruption) (E. faecalis): E. faecalis (R); Organism, effect (morphology, biofilm and growth disruption) (S. pneumoniae): S. pneumoniae (C) |
| PF-683 (chain 1 LWPVA; chain 2 LWPVA; Peptide with targeting and/or antimicrobial activity) |  | Mycobacteria spp |  |  |  |  | Organism, effect (morphology, biofilm and growth disruption) (S. epidermidis): S. epidermidis (R); Organism, effect (morphology, biofilm and growth disruption) (S. pneumoniae): S. pneumoniae (H); Organism, effect (morphology, biofilm and growth disruption) (MRSA): MRSA (R) |
| PF-760: peptide having multiple activities (DHITLDDYEIHDGFNFELYYG; Peptide with targeting and/or antimicrobial activity) |  | S. epidermidis; also recorded: M. luteus | G B |  |  |  | Organism, effect (morphology, biofilm and growth disruption) (S. epidermidis): S. epidermidis (M); Organism, effect (morphology, biofilm and growth disruption) (S. pneumoniae): S. pneumoniae (C); Organism, effect (morphology, biofilm and growth disruption) (MRSA): MRSA (M) |
